According to patent publication US20110034498A1, “DOSING REGIMENS FOR THE TREATMENT OF CANCER” (priority 2006, published 2011):

What was measured:
Type in all cases: in vivo
PC-3 cells = experiment: mouse PC-3 prostate xenograft model, subcutaneous tumor burden; conditions: for End Volume / Start Volume: 10 mg/kg/day (table); for End Volume: after 25 days of treatment; for Start Volume: tumor volume at start
Procedure: A study was performed in mouse PC-3 prostate xenograft models to assess the ability of the methods of the present invention to reduce subcutaneous tumor burden. In the study male athymic nude (Nu/Nu) mice were implanted with PC-3 cells (1×10^7 cells) into the flank of the left leg. When the average tumor size reached 200 mm^3 animals were randomly assigned to treatment groups (N=12/group). Mice were implanted with Alzet mini pumps containing either the HCl salt of compound 1 or vehicle (30% HPBCD in WFI). The mini pumps were surgically implanted subcutaneously on the flank of the right leg, contralateral to the site of the tumor implant. The pumps were replaced with new pumps every 6th day of the study. In the study, mice received either vehicle or the test compound at 10.6 mg/kg/day. Tumor volumes for each group were measured at regular intervals during treatment. The animals were sacrificed after 25 days of treatment and tumor volumes were compared.
A study was performed in mouse PC-3 prostate xenograft models to assess the ability of the methods of the present invention to reduce subcutaneous tumor burden. Male athymic nude (Nu/Nu) mice were implanted with PC-3 cells (1×10^7 cells) into the flank of the left leg. When the average tumor size reached 200 mm^3, animals were randomly assigned to treatment groups (N=12/group). […] The mini pumps were surgically implanted subcutaneously on the flank of the right leg, contralateral to the site of the tumor implant. The pumps were replaced with new pumps every 6th day of the study. Mice received either vehicle or the test compound at 10.6 mg/kg/day. Tumor volumes for each group were measured at regular intervals during treatment. The animals were sacrificed after 25 days of treatment, and tumor volumes were compared.

SKOV-3 cells = experiment: mouse SKOV-3 xenograft model, subcutaneous tumor burden; conditions: for End Volume / Start Volume: nude mice, HCl salt via s.c. Alzet mini pump; for End Volume: treatment lasted 74 days; for Start Volume: tumor volume at start
Procedure: When the average tumor size reached 50 mm^3, animals were randomly assigned to treatment groups. […] Tumor volumes of the two groups were measured at regular intervals during treatment, which lasted 74 days.

PAN-02 cells = experiment: mouse PAN-02 xenograft model, subcutaneous tumor burden
Text: The PAN-02 cells were maintained by in vivo passaging in C57/1316 mice. Male C57/B16 mice were implanted with PAN-02 cells (8 mm^3 tumor fragments) into the inguinal area. Each mouse was implanted with an 8 mm^3 tumor PAN-02 tumor fragment collected from a donor mouse. The tumor fragment was loaded onto a 16 G trocar and implanted by piercing through the skin in the right inguinal area. The animals were randomly assigned to treatment groups (N=14/group). […] Mice received either vehicle or the test compound at 20 mg/kg/day. Tumor volumes of the two groups were measured at regular intervals during treatment, which lasted 32 days.

[1] = PC-3 xenograft, male athymic nude mice, HCl salt via s.c. Alzet mini pump, continuous
[2] = PC-3 xenograft (Example 5), nude mice, HCl salt of cyclopamine via s.c. Alzet mini pump

CC1=C2C[C@H]3[C@@H](CCC4=CC(=O)CC[C@@]43C)[C@@H]2CC[C@@]2(C1)O[C@@H]1C[C@H](C)CN[C@H]1[C@H]2C [Compound 1]
End Volume (PC-3 cells; [1]): 444 ± 101 mm^3 | Start Volume (PC-3 cells; [1]): 188 ± 17 mm^3 | growth of the tumors (PC-3 cells; PC-3 xenograft, continuous doses 10.6 mg/kg/day, 25 days, versus vehicle): significantly reduced | growth of the tumors (SKOV-3 cells; continuous doses 10.6 or 20 mg/kg/day, 74 days, versus vehicle): significantly reduced | End Volume (SKOV-3 cells; 10.6 mg/kg/day): 186 ± 57 mm^3 | Start Volume (SKOV-3 cells; 10.6 mg/kg/day): 57 ± 5 mm^3 | End Volume (SKOV-3 cells; 20 mg/kg/day): 52 ± 11 mm^3 | Start Volume (SKOV-3 cells; 20 mg/kg/day): 31 ± 4 mm^3 | growth of the tumors (PAN-02 cells; PAN-02 model, continuous doses 20 mg/kg/day, 32 days, versus vehicle): significantly reduced | End Volume (PAN-02 cells; PAN-02 tumor fragments in male C57/B16 mice, HCl salt via s.c. Alzet mini pump, 20 mg/kg/day, treatment lasted 32 days): 481 ± 64 mm^3 | Start Volume (PAN-02 cells; PAN-02 tumor fragments in male C57/B16 mice, HCl salt via s.c. Alzet mini pump, 20 mg/kg/day, tumor volume at start): 82 ± 8 mm^3

CC1=C2C[C@H]3[C@@H](CC=C4C[C@@H](O)CC[C@@]43C)[C@@H]2CC[C@]12O[C@@H]1C[C@H](C)CN[C@H]1[C@H]2C [Cyclopamine, reference compound]
End Volume (PC-3 cells; [2]): 448 ± 152 mm^3 | Start Volume (PC-3 cells; [2]): 170 ± 29 mm^3
